In patent US11001587B2, “Substituted indazoles as phosphatidylinositol kinase inhibitors” (CUROVIR AB, priority 2017, dated 2021):

What was measured:
coxsackie B1 virus = experiment: In vitro CPE assay in mammalian cell culture, B1; assay type: cell-based; details: viral cytopathic effect in mammalian cell culture, read-out: B1 inhibition capacity (IC50)
Enterovirus 6 = experiment: In vitro CPE assay in mammalian cell culture, EV6; assay type: cell-based; details: viral cytopathic effect in mammalian cell culture, read-out: EV6 inhibition capacity (IC50)
coxsackie B2 virus = experiment: In vitro CPE assay in mammalian cell culture, B2; assay type: cell-based; details: viral cytopathic effect in mammalian cell culture, read-out: B2 inhibition capacity (IC50)
in vivo = experiment: in vivo; design: species or system Sprague Dawley rats; details: male, Sprague Dawley, rat, po, 50 mg/kg
Description: Overnight fasted animals were administered with the test compounds in recommended vehicle 0.4% (v/v) Tween 80+2% (v/v) Glycerol and 15% w/v HPBCD by oral route with a dose of 50 mg/kg body weight at dose volume of 10 mL/kg bw. Under mild isoflurane anesthesia, blood samples were collected into pre-labeled tubes containing anticoagulant (K2EDTA—2 mg/mL blood) during the next 24 hours post dose. Collected blood samples were centrifuged at 4000 rpm, 4° C. for 10 minutes and plasma was separated and stored at −80° C. until analysis.

coxsackie B3 virus = experiment: In vitro CPE assay in mammalian cell culture, B3; assay type: cell-based; details: Enterovirus B, viral cytopathic effect in mammalian cell culture, read-out: B3 inhibition capacity (IC50)
PI4KIIIβ = PI4KIIIβ (Homo sapiens, UniProt Q9UBF8); experiment: Phosphatidyl inositol kinase inhibition assay (ADP-Glo Kinase Assay); assay type: biochemical
PI4KIIIβ, sequence (Q9UBF8 whole entry): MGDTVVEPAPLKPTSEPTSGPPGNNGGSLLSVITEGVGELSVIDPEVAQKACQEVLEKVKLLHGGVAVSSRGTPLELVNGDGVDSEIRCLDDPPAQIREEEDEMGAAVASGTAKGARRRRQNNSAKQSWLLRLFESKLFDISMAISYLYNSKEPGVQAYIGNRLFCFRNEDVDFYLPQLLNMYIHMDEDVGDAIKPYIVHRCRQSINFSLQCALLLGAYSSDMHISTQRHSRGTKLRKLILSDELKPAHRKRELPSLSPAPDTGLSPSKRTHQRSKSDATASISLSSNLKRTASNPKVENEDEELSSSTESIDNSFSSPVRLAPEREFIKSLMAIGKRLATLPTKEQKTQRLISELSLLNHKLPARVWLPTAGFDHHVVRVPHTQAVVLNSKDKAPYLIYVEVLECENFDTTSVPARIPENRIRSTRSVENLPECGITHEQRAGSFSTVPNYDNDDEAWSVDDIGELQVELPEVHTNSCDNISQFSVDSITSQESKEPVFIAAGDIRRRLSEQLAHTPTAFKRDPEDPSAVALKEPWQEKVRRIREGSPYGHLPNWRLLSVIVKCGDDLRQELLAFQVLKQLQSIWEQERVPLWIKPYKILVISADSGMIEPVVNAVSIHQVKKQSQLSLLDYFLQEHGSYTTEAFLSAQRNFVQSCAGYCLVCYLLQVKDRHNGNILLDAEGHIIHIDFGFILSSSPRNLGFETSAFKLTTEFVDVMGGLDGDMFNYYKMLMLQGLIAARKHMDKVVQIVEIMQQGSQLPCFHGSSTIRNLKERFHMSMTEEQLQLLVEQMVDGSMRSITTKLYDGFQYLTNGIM
Description: (§1) Phosphatidyl inositol kinase inhibition assay Inhibition of PI4 kinases was studied using the ADP-Glo™ Kinase Assay which is a luminescent kinase assay that measures ADP formed from a kinase reaction, wherein ADP is converted into ATP, which is converted into light by Ultra-Glo™ Luciferase. The assay is performed in two steps; first, after the kinase reaction, an equal volume of ADP-Glo™ Reagent is added to terminate the kinase reaction and deplete the remaining ATP. In the second step, the Kinase Detection Reagent is added, which simultaneously converts ADP to ATP and allows the newly synthesized ATP to be measured using a coupled luciferase/luciferin reaction. The luminescent signal produced is proportional to the activity of the kinase. Inhibition of PI3 kinases was studied using the HTRF (homogeneous time-resolved fluorescence) assay, which is a universal method for identifying and characterizing the phosphotransferase activity induced by any ATP/ADP dependent target. The formation of ADP was detected by a specific monoclonal antibody labeled with Eu^3+ cryptate, and directly correlated with the amount of phosphorylated substrate.

PI4KIIIα = PI4KIIIα (Homo sapiens, UniProt P42356); experiment: as above; assay type: biochemical; details: * no inhibition at the highest tested concentration 1 μM
PI4KIIIα, sequence (P42356 whole entry): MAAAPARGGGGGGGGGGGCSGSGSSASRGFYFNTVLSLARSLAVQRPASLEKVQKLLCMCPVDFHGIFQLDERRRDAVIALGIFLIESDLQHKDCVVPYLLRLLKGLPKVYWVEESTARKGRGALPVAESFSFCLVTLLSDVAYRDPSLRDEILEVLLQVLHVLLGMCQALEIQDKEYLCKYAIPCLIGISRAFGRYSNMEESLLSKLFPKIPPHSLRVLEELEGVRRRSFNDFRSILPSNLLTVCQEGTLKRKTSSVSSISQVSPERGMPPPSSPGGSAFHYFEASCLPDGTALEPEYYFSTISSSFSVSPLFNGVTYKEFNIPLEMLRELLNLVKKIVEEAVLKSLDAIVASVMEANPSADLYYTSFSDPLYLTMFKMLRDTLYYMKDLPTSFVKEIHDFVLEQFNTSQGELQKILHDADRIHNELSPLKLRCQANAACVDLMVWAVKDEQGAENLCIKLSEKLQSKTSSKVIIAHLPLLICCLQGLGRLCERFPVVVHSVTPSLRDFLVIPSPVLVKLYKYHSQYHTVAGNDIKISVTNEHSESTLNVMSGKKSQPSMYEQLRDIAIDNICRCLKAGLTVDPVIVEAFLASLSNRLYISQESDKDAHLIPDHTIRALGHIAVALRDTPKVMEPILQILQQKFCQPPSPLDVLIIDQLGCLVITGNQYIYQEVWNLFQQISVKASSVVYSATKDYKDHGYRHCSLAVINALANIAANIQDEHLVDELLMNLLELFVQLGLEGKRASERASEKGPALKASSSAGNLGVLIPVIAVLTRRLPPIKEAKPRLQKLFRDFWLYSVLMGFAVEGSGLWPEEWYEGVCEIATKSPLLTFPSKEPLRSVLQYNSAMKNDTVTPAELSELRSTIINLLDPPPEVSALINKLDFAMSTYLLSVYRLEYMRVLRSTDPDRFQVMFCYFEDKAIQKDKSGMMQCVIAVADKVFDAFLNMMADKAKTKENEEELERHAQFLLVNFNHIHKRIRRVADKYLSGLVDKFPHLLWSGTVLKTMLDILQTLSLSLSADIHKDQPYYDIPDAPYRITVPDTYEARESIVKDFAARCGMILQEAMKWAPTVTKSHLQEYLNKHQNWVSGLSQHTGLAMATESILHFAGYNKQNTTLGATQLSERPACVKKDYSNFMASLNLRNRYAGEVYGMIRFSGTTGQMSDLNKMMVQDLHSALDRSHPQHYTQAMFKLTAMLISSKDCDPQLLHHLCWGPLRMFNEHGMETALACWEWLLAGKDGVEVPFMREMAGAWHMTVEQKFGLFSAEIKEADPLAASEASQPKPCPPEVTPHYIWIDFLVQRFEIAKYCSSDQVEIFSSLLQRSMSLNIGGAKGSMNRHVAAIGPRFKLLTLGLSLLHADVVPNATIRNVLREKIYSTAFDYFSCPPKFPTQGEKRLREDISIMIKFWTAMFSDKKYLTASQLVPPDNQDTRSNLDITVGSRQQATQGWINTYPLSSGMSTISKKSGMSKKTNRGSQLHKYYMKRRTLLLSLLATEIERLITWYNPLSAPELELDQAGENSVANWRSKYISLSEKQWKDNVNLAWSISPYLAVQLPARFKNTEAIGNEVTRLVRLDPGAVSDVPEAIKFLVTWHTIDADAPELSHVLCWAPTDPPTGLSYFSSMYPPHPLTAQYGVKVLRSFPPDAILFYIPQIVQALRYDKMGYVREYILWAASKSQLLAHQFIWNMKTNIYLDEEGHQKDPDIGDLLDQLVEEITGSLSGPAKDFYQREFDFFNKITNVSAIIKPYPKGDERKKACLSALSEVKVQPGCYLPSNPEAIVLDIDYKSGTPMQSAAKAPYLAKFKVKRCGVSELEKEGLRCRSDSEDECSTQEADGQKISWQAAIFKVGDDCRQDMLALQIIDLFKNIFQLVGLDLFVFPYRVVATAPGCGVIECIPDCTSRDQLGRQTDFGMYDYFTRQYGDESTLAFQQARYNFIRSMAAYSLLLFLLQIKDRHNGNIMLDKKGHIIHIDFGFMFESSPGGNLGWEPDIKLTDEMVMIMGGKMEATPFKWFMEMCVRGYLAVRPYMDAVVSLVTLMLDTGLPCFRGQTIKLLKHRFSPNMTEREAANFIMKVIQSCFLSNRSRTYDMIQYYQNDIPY
Description: as §1

PI3Kα = PI3Kα (Homo sapiens, UniProt P42336); experiment: PI3 kinase inhibition HTRF assay; assay type: biochemical; details: * no inhibition at the highest tested concentration 1 μM
PI3Kα, sequence (P42336 whole entry, species assumed): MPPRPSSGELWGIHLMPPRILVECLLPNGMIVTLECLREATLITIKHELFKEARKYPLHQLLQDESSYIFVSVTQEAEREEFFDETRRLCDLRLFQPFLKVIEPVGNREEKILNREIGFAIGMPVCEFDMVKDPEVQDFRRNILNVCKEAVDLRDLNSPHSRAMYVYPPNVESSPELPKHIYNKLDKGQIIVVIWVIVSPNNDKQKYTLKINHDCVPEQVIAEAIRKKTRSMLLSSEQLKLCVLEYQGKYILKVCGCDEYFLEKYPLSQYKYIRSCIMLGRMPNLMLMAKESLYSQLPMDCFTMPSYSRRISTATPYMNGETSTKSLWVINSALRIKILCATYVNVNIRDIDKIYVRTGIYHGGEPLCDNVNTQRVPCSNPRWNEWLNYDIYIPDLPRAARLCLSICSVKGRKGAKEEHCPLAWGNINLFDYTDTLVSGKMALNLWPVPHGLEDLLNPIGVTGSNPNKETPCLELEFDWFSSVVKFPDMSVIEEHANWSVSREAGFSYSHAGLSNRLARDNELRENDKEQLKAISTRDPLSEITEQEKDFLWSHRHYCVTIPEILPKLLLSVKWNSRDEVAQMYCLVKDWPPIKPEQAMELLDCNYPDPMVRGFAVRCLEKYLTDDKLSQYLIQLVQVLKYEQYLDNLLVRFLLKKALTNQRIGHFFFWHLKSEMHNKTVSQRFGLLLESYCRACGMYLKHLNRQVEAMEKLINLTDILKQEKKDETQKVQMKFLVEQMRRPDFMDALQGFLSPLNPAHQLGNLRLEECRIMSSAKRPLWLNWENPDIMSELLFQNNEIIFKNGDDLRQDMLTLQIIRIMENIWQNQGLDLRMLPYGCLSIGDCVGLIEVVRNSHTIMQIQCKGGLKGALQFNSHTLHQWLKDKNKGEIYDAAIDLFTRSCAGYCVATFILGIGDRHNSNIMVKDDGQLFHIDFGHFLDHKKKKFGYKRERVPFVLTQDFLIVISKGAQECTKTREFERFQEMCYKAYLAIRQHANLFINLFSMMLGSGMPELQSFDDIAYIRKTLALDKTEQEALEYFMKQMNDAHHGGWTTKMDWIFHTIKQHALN
PI3Kα, sequence (P27986 whole entry partner, species assumed): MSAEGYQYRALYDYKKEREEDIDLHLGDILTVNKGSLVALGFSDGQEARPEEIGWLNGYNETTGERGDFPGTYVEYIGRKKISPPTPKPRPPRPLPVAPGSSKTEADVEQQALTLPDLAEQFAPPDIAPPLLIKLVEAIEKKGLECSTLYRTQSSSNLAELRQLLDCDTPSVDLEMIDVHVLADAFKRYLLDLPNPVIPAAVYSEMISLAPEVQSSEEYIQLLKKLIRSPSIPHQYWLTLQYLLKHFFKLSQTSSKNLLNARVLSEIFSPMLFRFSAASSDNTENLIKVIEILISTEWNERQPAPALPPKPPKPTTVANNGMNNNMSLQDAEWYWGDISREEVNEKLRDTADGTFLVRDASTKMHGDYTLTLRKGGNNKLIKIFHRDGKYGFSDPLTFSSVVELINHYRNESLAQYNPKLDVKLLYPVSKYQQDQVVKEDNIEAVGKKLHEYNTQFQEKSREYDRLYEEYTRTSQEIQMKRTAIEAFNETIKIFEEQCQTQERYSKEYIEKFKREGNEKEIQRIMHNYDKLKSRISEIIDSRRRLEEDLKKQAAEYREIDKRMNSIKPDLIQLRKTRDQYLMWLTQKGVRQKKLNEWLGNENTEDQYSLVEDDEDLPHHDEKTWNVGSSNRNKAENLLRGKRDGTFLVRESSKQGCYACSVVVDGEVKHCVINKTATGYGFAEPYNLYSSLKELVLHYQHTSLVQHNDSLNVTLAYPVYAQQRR
Description: as §1

PI3Kβ = PI3Kβ (Homo sapiens, UniProt P42338); experiment: PI3 kinase inhibition HTRF assay; assay type: biochemical; details: * no inhibition at the highest tested concentration 1 μM
Description: as §1

Enterovirus 68 = experiment: In vitro CPE assay in mammalian cell culture, EV68; assay type: cell-based; details: Enterovirus D, viral cytopathic effect in mammalian cell culture, read-out: EV68 inhibition capacity (IC50)
coxsackie B4 virus = experiment: In vitro CPE assay in mammalian cell culture, B4; assay type: cell-based; details: Enterovirus B, viral cytopathic effect in mammalian cell culture, read-out: B4 inhibition capacity (IC50)
[1] = Metabolic stability in human liver microsomes; assay type: in vitro ADME; details: for Remaining after 1 h, HLM: human liver microsomes, 5 μM test item, 0.125 mg/mL microsomal protein; for half-life at 5 μM: human, microsomes
Description: (§2) Metabolic stability in human and rat liver microsomesMetabolic stability was studied using human (HLM) or rat (RLM) liver microsomes. The final composition of the assay included 5 μM of test item and reference item (Diclofenac or Imipramine) prepared from DMSO stock, so that the final concentration of DMSO was 0.1%, 0.125 mg/mL microsomal protein and cofactors (5.0 mM G-6-P, 0.06 U/mL G-6-PDH, 2.0 mM MgCl2, 1.0 mM NADP^+). Test and reference items were incubated with human or rat liver microsomes with or without cofactors. The reaction mixture (100 μL) was removed at specified time periods and the reaction was stopped by addition of stop solution. The samples were extracted in presence of internal standard and were analyzed using LC-MS/MS. The percent of the test/reference item remaining after a specified incubation period was calculated with respect to the peak area ratio at time 0 min.

in vitro = in vitro ADME; details: plasma, pH 7.4
Description: Plasma protein binding study was performed by using a Rapid Equilibrium Dialysis (RED) device containing dialysis membrane with a molecular weight cut-off of 8,000 Daltons. Each dialysis insert contains two chambers. The red chamber was for the plasma while the white chamber was for the buffer. The human and rat plasma (pH adjusted to 7.40) samples of test items and reference items (Warfarin and Propranolol) were prepared at a required test concentration of 5 μM using 5 mM DMSO stocks (final DMSO concentration was 0.1%). 300 μL of plasma sample was added into the sample chamber. 500 μL of buffer was added into the buffer chamber. After sealing the RED device with an adhesive film, incubation was done at 37° C. with shaking at 300 rpm for 4 h. Following incubation, an aliquot of 50 μL was removed from each well (plasma and buffer side) and diluted with equal volume of opposite matrix to nullify the matrix effect. The specimens were subjected to sample extraction in presence of internal standard by liquid-liquid extraction/protein precipitation method. After extraction, the samples were transferred into labeled auto sampler vials and submitted to LC-MS/MS analysis.

coxsackie B5 virus = experiment: In vitro CPE assay in mammalian cell culture, B5; assay type: cell-based; details: viral cytopathic effect in mammalian cell culture, read-out: B5 inhibition capacity (IC50)
Enterovirus 71 = experiment: In vitro CPE assay in mammalian cell culture, EV71; assay type: cell-based; details: Enterovirus A, viral cytopathic effect in mammalian cell culture, read-out: EV71 inhibition capacity (IC50)
Enterovirus 30 = experiment: In vitro CPE assay in mammalian cell culture, EV30; assay type: cell-based; details: viral cytopathic effect in mammalian cell culture, read-out: EV30 inhibition capacity (IC50)
[2] = Metabolic stability in rat liver microsomes; assay type: in vitro ADME; details: 5 μM test item, 0.125 mg/mL microsomal protein
Description: as §2

polio virus Sabin 1 = experiment: organism not typed; assay type: cell-based; details: read-out: Polio 1 inhibition capacity (IC50)

For Cc1nc(NCc2ccncc2)n2nc(C)c(-c3ccc4c(c3)c(C)nn4C)c2n1 [Example 20, 8-(1,3-dimethyl-1H-indazol-5-yl)-2,7-dimethyl-N-(pyridin-4-ylmethyl)pyrazolo[1,5-a][1,3,5]triazin-4-amine], the IC50 (coxsackie B1 virus) was less than 1 nM, the IC50 (Enterovirus 6) was less than 1000 nM and the IC50 (coxsackie B2 virus) was less than 1 nM. It also gave an AUC(0-inf) (in vivo) of 115 ± 9.4 µg·h/mL, an AUC(0-t) (in vivo) of 110 ± 8.3 µg·h/mL and an AUCextrap (in vivo) of 5.1 ± 4.9%. For the same compound, the Cmax (in vivo) was 8000 ± 1500 ng/mL, the MRT last (in vivo) was 6.8 ± 0.9 h and the Tmax (in vivo) was 2 h. It also gave a half-life (in vivo) of 5 ± 2.3 h, an IC50 (coxsackie B3 virus) of less than 1 nM and an IC50 (PI4KIIIβ) of 1.2 nM. For the same compound, the IC50 (PI4KIIIα) was greater than 1000 nM, the IC50 (PI3Kα) was greater than 1000 nM and the IC50 (PI3Kβ) was greater than 1000 nM. For the same compound, the IC50 (Enterovirus 68) was less than 10 nM, the IC50 (coxsackie B4 virus) was less than 10 nM and the “Remaining after 1 h, HLM” value [1] was 78%. It also gave a half-life at 5 μM [1] greater than 2 h, a fraction unbound at 4 h, 5 μM (in vitro; human) of 0.906 and a fraction unbound at 4 h, 5 μM (in vitro; rat) of 0.031. The IC50 (coxsackie B5 virus) was less than 1 nM, the IC50 (Enterovirus 71) was less than 10 nM and the IC50 (Enterovirus 30) was less than 10 nM. The “Remaining after 1 h, RLM” value [2] was 96% and the IC50 (polio virus Sabin 1) was less than 1 nM.

In the case of Cc1cc(NCc2ccncc2)n2nc(C)c(-c3ccc4c(c3)c(C)nn4C)c2n1 [Example 8, 3-(1,3-dimethyl-1H-indazol-5-yl)-2,5-dimethyl-N-(pyridin-4-ylmethyl)pyrazolo[1,5-a]pyrimidin-7-amine], the IC50 (coxsackie B1 virus) is reported as less than 0.1 nM, the IC50 (Enterovirus 6) is reported as less than 100 nM and the IC50 (coxsackie B2 virus) is reported as less than 0.1 nM. For the same compound, the AUC(0-inf) (in vivo) was 197 ± 27.1 µg·h/mL, the AUC(0-t) (in vivo) was 185 ± 13.3 µg·h/mL and the AUCextrap (in vivo) was 5.7 ± 6.1%. For the same compound, the Cmax (in vivo) was 12900 ± 700 ng/mL, the MRT last (in vivo) was 6.8 ± 0.8 h and the Tmax (in vivo) was 1.7 ± 0.6 h. The half-life (in vivo) was 5.4 ± 2.5 h, the IC50 (coxsackie B3 virus) was less than 0.1 nM and the IC50 (PI4KIIIβ) was 0.9 nM. It also gave an IC50 (PI4KIIIα) of 1300 nM, an IC50 (PI3Kα) greater than 1000 nM and an IC50 (PI3Kβ) of 1500 nM. The IC50 (Enterovirus 68) was less than 0.1 nM, the IC50 (coxsackie B4 virus) was less than 10 nM and the “Remaining after 1 h, HLM” value [1] was 86%. The half-life at 5 μM [1] was greater than 2 h, the fraction unbound at 4 h, 5 μM (in vitro; human) was 0.027 and the fraction unbound at 4 h, 5 μM (in vitro; rat) was 0.024. It also gave an IC50 (coxsackie B5 virus) of less than 0.1 nM, an IC50 (Enterovirus 71) of less than 0.1 nM and an IC50 (Enterovirus 30) of less than 1 nM. For the same compound, the “Remaining after 1 h, RLM” value [2] was 90% and the IC50 (polio virus Sabin 1) was less than 0.1 nM.
